Assay results as given in ChEMBL document CHEMBL2073910, “Molecular cloning and functional characterization of the mouse organic-anion-transporting polypeptide 1 (Oatp1) and mapping of the gene to chromosome X” (Biochem J, 2000).

T1: Solute carrier organic anion transporter family member 1A1 (Mus musculus, UniProt Q9QXZ6)
T1 sequence (Q9QXZ6 whole entry): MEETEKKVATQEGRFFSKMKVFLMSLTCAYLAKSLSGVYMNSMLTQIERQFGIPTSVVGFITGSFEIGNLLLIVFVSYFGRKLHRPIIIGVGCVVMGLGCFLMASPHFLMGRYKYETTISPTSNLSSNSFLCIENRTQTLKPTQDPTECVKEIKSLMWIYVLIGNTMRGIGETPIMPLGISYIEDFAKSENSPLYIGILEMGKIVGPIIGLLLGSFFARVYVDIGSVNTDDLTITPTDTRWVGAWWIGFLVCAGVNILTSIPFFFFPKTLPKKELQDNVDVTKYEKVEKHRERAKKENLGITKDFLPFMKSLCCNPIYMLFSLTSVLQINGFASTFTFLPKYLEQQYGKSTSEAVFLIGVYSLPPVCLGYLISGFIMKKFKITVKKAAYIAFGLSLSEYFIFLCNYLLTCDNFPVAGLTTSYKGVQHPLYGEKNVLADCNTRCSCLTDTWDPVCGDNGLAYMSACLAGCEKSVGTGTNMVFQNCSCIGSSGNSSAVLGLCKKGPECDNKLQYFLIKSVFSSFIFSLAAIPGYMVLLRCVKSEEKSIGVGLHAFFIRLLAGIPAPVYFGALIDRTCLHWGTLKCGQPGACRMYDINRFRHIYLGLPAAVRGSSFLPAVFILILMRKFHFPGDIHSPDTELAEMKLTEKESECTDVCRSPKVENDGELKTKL

B1: Solute carrier organic anion transporter family member 1A1 (Mus musculus) (protein)
chain: T1 sequence (Q9QXZ6 whole entry)

Key:
[1] = molecular target: T1, Solute carrier organic anion transporter family member 1A1; assay: (§1) TP_TRANSPORTER: uptake in Xenopus laevis oocytes; type: functional, cell-based; conditions: oocyte
[2] = substrate: C[C@]12CC[C@@H]3c4ccc(OS(=O)(=O)O)cc4CC[C@H]3[C@@H]1CCC2=O; assay: as §1; type: functional, cell-based, Oocyte

| Molecule | Activity [1] | Km [2] [µM] |
| --- | --- | --- |
| GADOXETATE | substrate [+] |  |
| O=C1OC(c2ccc(O)c(S(=O)(=O)[O-])c2)(c2ccc(O)c(S(=O)(=O)[O-])c2)c2c(Br)c(Br)c(Br)c(Br)c21.[Na+].[Na+] [SULFOBROMOPHTHALEIN SODIUM] | substrate [+] |  |
| C[C@@H]1O[C@@H](O[C@H]2C[C@@H](O)[C@]3(CO)[C@H]4[C@H](O)C[C@]5(C)[C@@H](C6=CC(=O)OC6)CC[C@]5(O)[C@@H]4CC[C@]3(O)C2)[C@H](O)[C@H](O)[C@H]1O [OUABAIN] | substrate [+] |  |
| B1 |  | 5 |
